Values of other authors, collected in patent US5948422A, “Oral dosage-forms containing a β-lactam antibiotic” (Yamanouchi Europe B.V., priority 1995, dated 1999).
Structures can show the parent of a compound that is named as a salt.

Settings: compared with free acid, other salts and ester

For `CC1(C)S[C@@H]2[C@H](NC(=O)COc3ccccc3)C(=O)N2[C@H]1C(=O)O` [potassium salt, phenoxymethylpenicillin potassium], the “bioavailability on oral administration” value is listed as “best bioavailability”.
